# Measured values: PubChem BioAssay (NCI)
# Where “and” joins values, the source holds several entries; their conditions need not be identical. Equal entries are not always repeated.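 The compound was tested at five concentrations on cells cultured in 96-well plates, with a 48-hour exposure period. GI50 is the concentration that inhibits growth by half. TGI denotes the concentration required for complete inhibition of growth.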
# What was measured:
# Experiment in all cases: growth of human tumour cells (NCI), 48 h
# CCRF-CEM leukemia = system: CCRF-CEM leukemia
# COLO 205 colon = system: COLO 205 colon
# HCT-116 colon = system: HCT-116 colon
# KM12 colon = system: KM12 colon
# MALME-3M melanoma = system: MALME-3M melanoma
# OVCAR-4 ovarian = system: OVCAR-4 ovarian
# OVCAR-8 ovarian = system: OVCAR-8 ovarian
# SK-MEL-5 melanoma = system: SK-MEL-5 melanoma
# SN12C renal = system: SN12C renal
# SR leukemia = system: SR leukemia
SMILES,TGI (CCRF-CEM leukemia),TGI (COLO 205 colon),TGI (HCT-116 colon),TGI (KM12 colon),TGI (MALME-3M melanoma),TGI (OVCAR-4 ovarian),TGI (OVCAR-8 ovarian),TGI (SK-MEL-5 melanoma),TGI (SN12C renal),TGI (SR leukemia),GI50 (COLO 205 colon),GI50 (HCT-116 colon),GI50 (KM12 colon),GI50 (MALME-3M melanoma),GI50 (OVCAR-4 ovarian),GI50 (OVCAR-8 ovarian),GI50 (SK-MEL-5 melanoma)
O=[N+]([O-])c1ccc2c(N=Nc3ccc4ccccc4c3O)c(O)cc(S(=O)(=O)O)c2c1,22 µM,> 82.9 µM,> 100 µM,> 100 µM,85 µM,> 100 µM,> 93.6 µM,53.6 µM,> 100 µM,> 69.4 µM,,,,,,,
CCOC(=O)c1cc([N+](=O)[O-])cc([N+](=O)[O-])c1Sc1ncnc2nc[nH]c12,6.84 µM,5.03 µM,7.69 µM,18.1 µM,,2.41 µM,4.48 µM,27.7 µM,5.34 µM,> 100 µM,,,,,,,
CCSc1[nH]c(NC(=NC(C)C)NC(=O)c2ccccc2)c(C(N)=O)c1C(N)=O,> 10 µM,> 10 µM,,> 10 µM,> 10 µM,> 10 µM,> 10 µM,> 10 µM,> 10 µM,> 10 µM,,,,,,,
O=C1c2c(F)c(F)c(F)c(F)c2SC2=Nc3cccc4cccc(c34)N12,> 25.1 µM,22.8 µM,11.9 µM,10.2 µM,9.24 µM,9 µM,17.7 µM,28.4 µM,10.4 µM,15.2 µM,,,,,,,
O=P(Nc1cccc(Cl)c1)(Oc1ccccc1)N(CCCl)CCCl (stereo not drawn),> 100 µM,29.3 µM,25.8 µM,28.6 µM,28.5 µM,25.4 µM,37.9 µM,25.3 µM,29.1 µM,> 100 µM,,,,,,,
COc1ccccc1[C@@H]1CCC2CC[C@@H](c3ccccc3OC)[N+]21Cc1ccccc1 (stereo partly drawn),20.3 µM,1.84 µM,13.1 µM,7.03 µM,15.3 µM,16.1 µM,13.8 µM,1.64 µM,10.4 µM,7.07 µM,,,,,,,
NC(CS)C(=O)NCCNc1ccc(NCCNC(=O)C(N)CS)c2c1C(=O)c1c(O)ccc(O)c1C2=O (stereo not drawn),0.517 µM,1.83 µM and 1.12 µM,0.261 µM and 0.154 µM,0.874 µM and 0.264 µM,1.27 µM and 1.24 µM,0.847 µM and 0.401 µM,0.574 µM and 0.174 µM,1.33 µM and 0.373 µM,0.0822 µM and 0.0691 µM,0.232 µM,0.136 µM,0.0176 µM,0.0393 µM,0.0818 µM,0.109 µM,0.0108 µM,0.0231 µM
COc1ccc2nc3c([N+](=O)[O-])ccc(NCCCN(C)C)c3c(N)c2c1,1.26 µM,2.29 µM,0.464 µM,3.02 µM,3.1 µM,3.06 µM,4.69 µM,3.63 µM,2.99 µM,4.23 µM,,,,,,,
C[C@]12CCC(=O)C=C1CC[C@@H]1C2CC[C@@]2(C)C1CC[C@@H]2OC(=O)C12OC1CCC2=O (stereo partly drawn),32.6 µM,34.4 µM,29.2 µM,35 µM,33.9 µM,41.5 µM,38.6 µM,29.7 µM,55.5 µM,53.4 µM,,,,,,,
COc1ccc(N2C(=O)C(=O)C3(CCCCC3)C2=O)c(OC)c1OC,> 100 µM,> 100 µM,> 100 µM,> 100 µM,> 100 µM,> 100 µM,> 100 µM,> 100 µM,> 100 µM,> 100 µM,,,,,,,
O=C1C=CC(=O)[C@H]2C3C=CC(C4C3C3(Cl)C(Cl)=C(Cl)[C@]4(Cl)C3(Cl)Cl)[C@@H]12 (stereo partly drawn),16.2 µM,19.1 µM,12.9 µM,17 µM,22.6 µM,16.2 µM,20.7 µM,15.3 µM,18.2 µM,9.28 µM,,,,,,,
COc1c(C)c(C/C=C(\C)CCCCO)c(OC)c2ccccc12,63 µM,> 100 µM,88.2 µM,54.9 µM,,> 100 µM,> 100 µM,39.5 µM,52.9 µM,55.6 µM,,,,,,,
O=c1cc(NNc2cccc(F)c2)[nH]c(=S)[nH]1,,> 100 µM,> 100 µM,> 100 µM,> 100 µM,> 100 µM,> 100 µM,> 100 µM,> 100 µM,> 100 µM,,,,,,,
CCOC(=O)C(NC(=O)c1ccccc1)(Nc1ccc(S(=O)(=O)Nc2ccc(OC)nn2)cc1)C(F)(F)F (stereo not drawn),> 100 µM,> 100 µM,> 100 µM,> 100 µM,> 100 µM,> 100 µM,> 100 µM,> 100 µM,> 100 µM,> 100 µM,,,,,,,
COC(=O)CC1NC(=O)C1C(C)(OC)OC (stereo not drawn),> 100 µM,> 100 µM,> 100 µM,,> 100 µM,> 100 µM,> 100 µM,> 100 µM,> 100 µM,> 100 µM,,,,,,,
O=C(c1cccnc1)N1N=C(c2ccc3c(c2)OCO3)CC1(O)c1cc(F)c(Cl)cc1Cl (stereo not drawn),75.4 µM,31.2 µM,31.2 µM,> 100 µM,54.1 µM,> 100 µM,38.4 µM,28.8 µM,36.5 µM,76.4 µM,,,,,,,
CCOC(=O)CCC(C(=O)OCC)n1nnc2ccc(Nc3c(C)[n+]([O-])c4cc(F)c(OCC)cc4[n+]3[O-])cc21 (stereo not drawn),> 100 µM,83.5 µM,> 100 µM,> 100 µM,> 100 µM,> 100 µM,> 100 µM,> 100 µM,> 100 µM,> 100 µM,,,,,,,

SMILES,TGI (CCRF-CEM leukemia),TGI (COLO 205 colon),TGI (HCT-116 colon),TGI (KM12 colon),TGI (MALME-3M melanoma),TGI (OVCAR-4 ovarian),TGI (OVCAR-8 ovarian),TGI (SK-MEL-5 melanoma),TGI (SN12C renal),TGI (SR leukemia),GI50 (COLO 205 colon),GI50 (HCT-116 colon),GI50 (KM12 colon),GI50 (MALME-3M melanoma),GI50 (OVCAR-4 ovarian),GI50 (OVCAR-8 ovarian),GI50 (SK-MEL-5 melanoma)
COC(=O)C1CCCN1C(=O)OC(C)(C)C (stereo not drawn),> 100 µM,> 100 µM,> 100 µM,> 100 µM,,> 100 µM,,> 100 µM,> 100 µM,> 100 µM,,,,,,,
CN(C)C1(c2cc3ccccc3s2)CCCCC1,0.0223 µM,> 100 µM,> 100 µM,> 100 µM,,> 100 µM,> 100 µM,33.3 µM,> 100 µM,46.5 µM,,,,,,,
CCOC(=O)C1=C(O)c2ccc(OC)cc2C(=O)C1=O,> 100 µM,> 100 µM,> 100 µM,> 100 µM,> 100 µM,> 100 µM,> 100 µM,> 100 µM,> 100 µM,> 100 µM,,,,,,,
O=C1CCc2ccccc2O1,> 100 µM,> 100 µM,> 100 µM,> 100 µM,> 100 µM,> 100 µM,> 100 µM,,> 100 µM,> 100 µM,,,,,,,
CC1(C)OC2OC(C(=O)c3ccccc3)C3OC(C)(C)OC3C2O1 (stereo not drawn),> 100 µM,> 100 µM,> 100 µM,> 100 µM,,> 100 µM,> 100 µM,> 100 µM,> 100 µM,> 100 µM,,,,,,,
Cc1ccc(S(=O)(=O)NCCCSCCO)cc1,> 100 µM,> 100 µM,> 100 µM,> 100 µM,,> 100 µM,> 100 µM,> 100 µM,> 100 µM,> 100 µM,,,,,,,
O=C(NCCC1CN(S(=O)(=O)C(F)(F)F)c2ccccc21)OCc1ccccc1 (stereo not drawn),> 100 µM,> 100 µM,> 100 µM,> 100 µM,> 100 µM,> 100 µM,> 100 µM,> 100 µM,,> 100 µM,,,,,,,
CN(C)C=Nc1c2c(nc3ccccc13)CCCC2,> 100 µM,> 100 µM,> 100 µM,,> 100 µM,> 100 µM,> 100 µM,> 100 µM,> 100 µM,> 100 µM,,,,,,,
CON(C(=O)OC(C)(C)C)c1ccccc1,> 100 µM,> 100 µM,> 100 µM,> 100 µM,> 100 µM,> 100 µM,> 100 µM,> 100 µM,,> 100 µM,,,,,,,
CC(=O)N1CCN(CCCCN2c3ccccc3Sc3cc(N=[N+]=[N-])ccc32)CC1,33.2 µM,29.7 µM,26.7 µM,28.2 µM,33 µM,,32 µM,,31.4 µM,26.5 µM,,,,,,,
CCCCc1c2c(nc3c1CCCC3=O)CCCC2,> 100 µM,> 100 µM,> 100 µM,> 100 µM,98.4 µM,,> 100 µM,> 100 µM,> 100 µM,> 100 µM,,,,,,,
CC(=O)CC12NC(=O)N(C)N=C1N(C)C(=O)N(C)C2=O (stereo not drawn),> 100 µM,> 100 µM,> 100 µM,> 100 µM,26.5 µM,> 100 µM,> 100 µM,,> 100 µM,> 100 µM,,,,,,,
CCN(CCN(CC)C(=O)NC)C(=O)NC,> 100 µM,> 100 µM,> 100 µM,,> 100 µM,,> 100 µM,> 100 µM,> 100 µM,> 100 µM,,,,,,,
O=C1C(c2c(O)[nH]c3ccc(I)cc23)=Nc2ccccc21,> 100 µM,> 100 µM,,> 100 µM,> 86.1 µM,> 44.7 µM,4.74 µM,10.8 µM,> 74.1 µM,> 100 µM,,,,,,,
COc1ccc(C=NCCCN=Cc2ccc(OC)cc2O)c(O)c1,> 100 µM,,> 100 µM,> 100 µM,71.5 µM,> 100 µM,> 100 µM,,90.6 µM,> 100 µM,,,,,,,
Cn1c(=O)oc2cc(C(=S)N3CCCCC3)ccc21,> 100 µM,> 100 µM,> 100 µM,> 100 µM,> 100 µM,,> 100 µM,> 100 µM,> 100 µM,> 100 µM,,,,,,,
